# Key:
# [1] = system: Otsuka Long-Evans Tokushima Fatty (OLETF) male rats; experiment: Urinary excretion of glucose and insulin resistance in OLETF rats on high-fat diet; format: in vivo; settings: eleventh week; for urinary glucose, mean±SD: 0.3% Cilostazol and/or 0.5% Probucol in diet, control 186±171 mg/dl; for effect on plasma glucose: 0.3% Cilostazol or 0.5% Probucol in diet, control 162±16 mg/dl
# Method: Otsuka Long-Evans Tokushima Fatty (OLETF) male rats (6 week olds) were divided randomly into the following four groups depending on the body weights by stratified randomized method (using SAS Software, R8.1): Immediately after the randomized grouping, high-fat diet (commercially available feed (CRF-1, manufactured by Oriental Yeast Industries Co., LTD.) supplemented with cholesterol (1.25%), sodium cholate (0.5%) and cacao butter (15%)) was administered to the mice in each group in order to promote the onset of renal disease. In the test-material administered groups, the high-fat diet combined with the test material was administered to each mouse immediately after grouping. In the eleventh week after initiation of feeding, the mice were bled from the tail vein without anesthetization, and the plasma glucose and insulin level in plasma were measured. Separately, the urine was taken, and the urinary glucose was measured. Glucose was measured by an enzymatic method using a commercially available kit for measuring glucose, and the insulin was measured by a commercially available ELISA kit. 1) In order to confirm the synergistic effects of the combination of Cilostazol and Probucol, two-way ANOVA was carried out between the control group and the Cilostazol-administered group as well as between the Probucol-administered group and two agents-administered group, and thereby the interaction was observed. 2) The effects in Cilostazol- and Probucol-administered group were compared with the effects in control group by Dunnett's test. Moreover, the effects in Cilostazol- and Probucol-administered group were compared with the effects in Cilostazol+Probucol-administered group by Dunnett's test. All tests were done by two-sided test with significant level of 5%, by means of SAS Software (SAS Institute Japan, R8.1). The data were shown by mean±SD (n).
# [2] = system: atherosclerotic lesion in low-density lipoprotein receptor-knockout mice; experiment: Atherosclerosis in low-density lipoprotein receptor-knockout mice fed high cholesterol; format: in vivo; settings: LDLR-KO mice; for area of atherosclerotic lesion (ratio of Sudan IV stained area to whole aorta), mean±SD: high-fat diet 8 weeks, control 10.1±4.7%; for inhibition of atherosclerotic lesion (in words): Cilostazol 0.3%, Probucol 0.1 and 0.5%, alone or combined, FIG. 2 and FIG. 3
# Method: Low-density lipoprotein receptor-knockout (LDLR-KO) mice (J. Clin. Invest. 1993; 92: 883-893) (male, 9 weeks old, which was prepared by and kept in Otsuka Pharmaceutical Co, Ltd.) were used. The animals were treated by grouping in the following six groups. Prior to start the experiment, the body weight of the animals and total cholesterol were measured, and based on both data, the animals were divided into six groups in random by stratified randomization method (SAS Software, R8.1). The doses of Probucol and Cilostazol were determined based on the reports (Horm. Metab. Res. 2001; 33: 472-479, and J. Pharmacol. Exp. Ther. 2005; 313: 502-509), respectively. In control group, mice were administered with a high-fat diet [i.e. a conventional feed (CRF-1, manufactured by Oriental Yeast Industries Co., LTD.) supplemented with cholesterol (1.25%), sodium cholate (0.5%) and cacao butter (15%)] and in the test material-administered group, the mice were administered with the high-fat diet combined with Cilostazol (0.3%) and/or Probucol (0.1% or 0.5%). The high-fat diet was administered to the LDLR-KO mice (since 9 weeks old) in order to induce atherosclerosis (in control group). In the test material-administration groups, the high-fat diet mixed with test material was administered to the mice (since 9 weeks old). The mice in both groups were dissected at eighth weeks after starting the administration of the diet. The atherosclerotic lesion was evaluated by picking up whole of the aorta under ether anesthesia, exposing the inner face of aorta and staining the fats with Sudan IV. The area of the atherosclerotic lesion (containing fats/lipids) in whole of the aorta was counted by image analysis of stained area and whole area of the aorta. 1) In order to confirm the synergistic effects of the combination of Cilostazol and Probucol, two-way ANOVA was carried out between the control group and the Cilostazol-administered group as well as between the Probucol-administered group and two agents-administered group, and thereby the interaction was observed. 2) The effects in Cilostazol- and Probucol-administered group were compared with the effects in control group by Dunnett's test. Moreover, the effects in Cilostazol- and Probucol-administered group were compared with the effects in Cilostazol+Probucol-administered group by Dunnett's test. All tests were done by two-sided test with significant level of 5%, by means of SAS Software (SAS Institute Japan, R8.1). The area of atherosclerotic lesion was calculated as the ratio (%) of the area stained by Sudan IV to the area of whole aorta. The mean values±standard deviation were 10.1±4.7% in Control group, 6.6±2.6% in Cilostazol-administered group, 6.2±2.6% in 0.1% Probucol-administered group, 4.7±1.2% in 0.5% Probucol-administered group, 3.8±1.2% in Cilostazol+0.1% Probucol-administered group, and 2.9±1.5% in Cilostazol+0.5% Probucol-administered group.
# [3] = system: focal cerebral ischemic injury in rats; experiment: Focal cerebral ischemic injury in rats (transient MCA occlusion, TTC-stained infarct); format: in vivo, Sprague-Dawley rats; settings: 2-h MCA occlusion/22-h reperfusion, oral, two times at 5 min and 4 h, cilostazol 20 mg/kg, probucol 30 mg/kg, vs vehicle, FIG. 4
# Method: Male Sprague-Dawley rats weighing 280-320 g were anesthetized with pentobarbital sodium (20 mg/kg, i.p.), and placed on a heating pad (Homeothermic Blanket System, Harvard Apparatus, South Natick, Mass.) to maintain a constant rectal temperature (37±0.5° C.). Systemic arterial blood pressure, arterial blood gas and pH were measured before, during ischemia and after 22-h reperfusion. Focal cerebral ischemia was induced by transient occlusion of the left middle cerebral artery (MCA) as previously described (Stroke 1989; 20:84-91). Surgical nylon suture thread (3-0 in size) with the round tip was advanced from the external carotid artery into the lumen of the internal carotid artery until blocking the flow of the MCA. Two hours after MCA occlusion, reperfusion was allowed by withdrawal of the suture thread until the tip cleared the internal carotid artery. […] The TTC-stained brain slices were photographed using CCD video camera and the size of an infarct was calculated with image analysis system (Image-Pro Plus, Media Cybernetics, Maryland) and expressed as the percentage of infarcted tissue in reference to the ipsilateral hemisphere. […] Data were expressed as mean±S.E.M. The comparison of the results of hemispheric infarct areas between groups is analyzed by repeated measures analysis of variance followed by Tukey's multiple comparison tests as a post hoc comparison. […]
Compound,"urinary glucose, mean±SD [1]",effect on plasma glucose [1],"area of atherosclerotic lesion (ratio of Sudan IV stained area to whole aorta), mean±SD ([2]; 0.3% Cilostazol in diet)",inhibition of atherosclerotic lesion (in words) [2],hemispheric cerebral infarct area (in words) [3],"area of atherosclerotic lesion (ratio of Sudan IV stained area to whole aorta), mean±SD ([2]; 0.1% Probucol in diet)","area of atherosclerotic lesion (ratio of Sudan IV stained area to whole aorta), mean±SD ([2]; 0.5% Probucol in diet)"
"O=C1CCc2cc(OCCCCc3nnnn3C3CCCCC3)ccc2N1 [Cilostazol, 6-[4-(1-cyclohexyl-1H-tetrazol-5-yl)butoxy]-3,4-dihydrocarbostyril]",11 ± 2 mg/dL,neither Cilostazol nor Probucol showed any effect,6.6±2.6%,inhibited the atherosclerotic lesion significantly,marginally reduced,–,–
"CC(C)(Sc1cc(C(C)(C)C)c(O)c(C(C)(C)C)c1)Sc1cc(C(C)(C)C)c(O)c(C(C)(C)C)c1 [Probucol, 4,4′-isopropylidenedithiobis[2,6-di-tert-butylphenol]]",11 ± 3 mg/dL,neither Cilostazol nor Probucol showed any effect,–,inhibited the atherosclerotic lesion significantly,without effect,6.2±2.6%,4.7±1.2%

# — US8580818B2, “Combination drug containing probucol and a tetrazolylalkoxy-dihydrocarbostyril derivative with superoxide supressant effects” (Otsuka Pharmaceutical Co., Ltd., priority 2005, dated 2013)
